The record followed here is patent US9732075B2, “Benzimidazole-proline derivatives” (IDORSIA PHARMACEUTICALS LTD, priority 2012, dated 2017).

The IC50 is the concentration at which inhibition is half-maximal.

One assay deals with human orexin-1 receptor (Homo sapiens (Human), UniProt O43613). Nature of the assay: In vitro assay: intracellular calcium measurements (FLIPR), antagonistic activity. The assay is classed as cell-based. As to conditions: CHO cells expressing human orexin-1 receptor, orexin-A agonist, geometric mean, read-out: IC50 Ox1. The method, then: (§1) In Vitro Assay: Intracellular Calcium Measurements:
(§2) Chinese hamster ovary (CHO) cells expressing the human orexin-1 receptor and the human orexin-2 receptor, respectively, are grown in culture medium (Ham F-12 with L-Glutamine) containing 300 μg/ml G418, 100 U/ml penicillin, 100 μg/ml streptomycin and 10% heat inactivated fetal calf serum (FCS). The cells are seeded at 20,000 cells/well into 384-well black clear bottom sterile plates (Greiner). The seeded plates are incubated overnight at 37° C. in 5% CO2.
(§3) Human orexin-A as an agonist is prepared as 1 mM stock solution in MeOH: water (1:1), diluted in HBSS containing 0.1% bovine serum albumin (BSA), NaHCO3: 0.375 g/l and 20 mM HEPES for use in the assay at a final concentration of 3 nM.
(§4) Antagonists are prepared as 10 mM stock solution in DMSO, then diluted in 384-well plates using DMSO followed by a transfer of the dilutions into in HBSS containing 0.1% bovine serum albumin (BSA), NaHCO3: 0.375 g/l and 20 mM HEPES. On the day of the assay, 50 μl of staining buffer (HBSS containing 1% FCS, 20 mM HEPES, NaHCO3: 0.375 g/l, 5 mM probenecid (Sigma) and […] of the fluorescent calcium indicator fluo-4 AM (1 mM stock solution in DMSO, containing 10% pluronic) is added to each well. The 384-well cell-plates are incubated for 50 min at 37° C. in 5% CO2 followed by equilibration at RT for 30 min before measurement.
(§5) Within the Fluorescent Imaging Plate Reader (FLIPR Tetra, Molecular Devices), antagonists are added to the plate in a volume of 10 μl/well, incubated for 120 min and finally 10 μl/well of agonist is added. Fluorescence is measured for each well at 1 second intervals, and the height of each fluorescence peak is compared to the height of the fluorescence peak induced by an approximate EC70 (for example 5 nM) of orexin-A with vehicle in place of antagonist. The IC50 value (the concentration of compound needed to inhibit 50% of the agonistic response) is determined and may be normalized using the obtained IC50 value of a on-plate reference compound. Optimized conditions are achieved by adjustment of pipetting speed and cell splitting regime. The calculated IC50 values may fluctuate depending on the daily cellular assay performance. Fluctuations of this kind are known to those skilled in the art. Average IC50 values from several measurements are given as geometric mean values.
In general terms: Calcium assays in cells follow changes in intracellular calcium, usually with a dye or a luminescent sensor.

A further assay concerns the target human orexin-2 receptor (Homo sapiens (Human), UniProt O43614). Described as above. The assay is classed as cell-based. Particulars: CHO cells expressing human orexin-2 receptor, orexin-A agonist, geometric mean, read-out: IC50 Ox2. The method, then:
as §1, §2, §3, §4, §5

Chain of human orexin-1 receptor (O43613 whole entry): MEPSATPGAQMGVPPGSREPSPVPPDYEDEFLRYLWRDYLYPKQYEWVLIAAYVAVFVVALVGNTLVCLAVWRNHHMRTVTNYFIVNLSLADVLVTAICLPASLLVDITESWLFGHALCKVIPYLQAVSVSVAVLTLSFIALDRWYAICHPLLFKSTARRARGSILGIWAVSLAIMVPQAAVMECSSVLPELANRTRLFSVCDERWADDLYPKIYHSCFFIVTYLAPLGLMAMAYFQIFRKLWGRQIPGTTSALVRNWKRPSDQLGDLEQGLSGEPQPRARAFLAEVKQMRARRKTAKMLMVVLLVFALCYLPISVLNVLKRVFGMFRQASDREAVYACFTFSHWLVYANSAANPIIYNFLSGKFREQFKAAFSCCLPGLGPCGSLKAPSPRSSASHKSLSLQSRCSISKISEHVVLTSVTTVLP
Chain of human orexin-2 receptor (O43614 whole entry): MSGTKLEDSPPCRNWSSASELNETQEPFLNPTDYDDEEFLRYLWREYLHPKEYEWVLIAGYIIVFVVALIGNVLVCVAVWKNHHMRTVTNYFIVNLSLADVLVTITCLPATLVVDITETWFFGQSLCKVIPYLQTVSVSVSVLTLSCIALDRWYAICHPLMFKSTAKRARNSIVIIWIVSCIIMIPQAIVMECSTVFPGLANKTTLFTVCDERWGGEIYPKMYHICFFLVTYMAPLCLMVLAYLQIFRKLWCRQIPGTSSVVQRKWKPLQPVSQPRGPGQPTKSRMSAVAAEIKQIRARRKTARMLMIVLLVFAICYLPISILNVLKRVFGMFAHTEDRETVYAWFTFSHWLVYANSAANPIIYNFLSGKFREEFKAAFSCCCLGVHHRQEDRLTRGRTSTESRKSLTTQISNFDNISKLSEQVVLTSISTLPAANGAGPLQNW

Turning to `CSc1cccc2nc([C@@H]3CCCN3C(=O)c3nc(C)sc3-c3cccc(Cl)c3Cl)[nH]c12` [Ex. 1.62], the IC50 on human orexin-1 receptor came to 128 nM; on human orexin-2 receptor, 197 nM.

In the case of `COc1cccc(-c2sc(C)nc2C(=O)N2CCC[C@H]2c2nc3cccc(SC)c3[nH]2)c1` [Ex. 1.63], the IC50 at human orexin-1 receptor turned out to be 12 nM; on human orexin-2 receptor, 9 nM.

Regarding `CSc1cccc2nc([C@@H]3CCCN3C(=O)c3nc(C)sc3-c3cccc(C(F)(F)F)c3)[nH]c12` [Ex. 1.64], the half-maximal inhibitory concentration (IC50) at human orexin-1 receptor is 12 nM; at human orexin-2 receptor, 18 nM.

On to `CSc1cccc2nc([C@@H]3CCCN3C(=O)c3nc(C)sc3-c3cccc(F)c3)[nH]c12` [Ex. 1.65], for which the IC50 at human orexin-1 receptor is 63 nM; at human orexin-2 receptor, 147 nM.

With `CSc1cccc2nc([C@@H]3CCCN3C(=O)c3nc(C)sc3-c3ccc(C)cc3)[nH]c12` [Ex. 1.66], the IC50 on human orexin-1 receptor stood at 20 nM; at human orexin-2 receptor it was 47 nM.

On to `CSc1cccc2nc([C@@H]3CCCN3C(=O)c3nc(C)sc3-c3ccc(F)c(F)c3)[nH]c12` [Ex. 1.67], for which the results for the IC50 on human orexin-1 receptor and at human orexin-2 receptor were 127 nM and 84 nM, respectively.

With `CSc1cccc2nc([C@@H]3CCCN3C(=O)c3nc(C4CC4)sc3-c3ccc(C)cc3)[nH]c12` [Ex. 1.68], the IC50 on human orexin-1 receptor came out at 7 nM; at human orexin-2 receptor it was 8 nM.

In the case of `CCc1ccc(-c2sc(C)nc2C(=O)N2CCC[C@H]2c2nc3cccc(SC)c3[nH]2)cc1` [Ex. 1.69], the results for the concentration for half-maximal inhibition (IC50) on human orexin-1 receptor and on human orexin-2 receptor were 37 nM and 31 nM, respectively.

Turning to `CSc1cccc2nc([C@@H]3CCCN3C(=O)c3nc(C4CC4)sc3-c3ccc(F)cc3)[nH]c12` [Ex. 1.70], the IC50 at human orexin-1 receptor and at human orexin-2 receptor was 26 nM in each case.

With `CSc1cccc2nc([C@@H]3CCCN3C(=O)c3nc(C)sc3-c3cc(F)cc(F)c3)[nH]c12` [Ex. 1.71], the figures for the IC50 on human orexin-1 receptor and on human orexin-2 receptor were 95 nM and 162 nM, respectively.

`COc1ccc(-c2nccnc2C(=O)N2CCC[C@H]2c2nc3cccc(SC)c3[nH]2)cc1` [Ex. 1.72]: the IC50 is 112 nM on human orexin-1 receptor and 180 nM at human orexin-2 receptor.

`CSc1cccc2nc([C@@H]3CCCN3C(=O)c3nccnc3-c3cccc(C(F)(F)F)c3)[nH]c12` [Ex. 1.73]: the IC50 at human orexin-1 receptor came to 136 nM; on human orexin-2 receptor it was 282 nM.

Regarding `CSc1cccc2nc([C@@H]3CCCN3C(=O)c3nccnc3-c3cc(C)cc(F)c3)[nH]c12` [Ex. 1.74], the IC50 stood at 52 nM at human orexin-1 receptor and 100 nM at human orexin-2 receptor.

Take `CSc1cccc2nc([C@@H]3CCCN3C(=O)c3ccccc3-c3ccc(C)c(C)c3)[nH]c12` [Ex. 1.75]: the IC50 on human orexin-1 receptor is 5 nM; on human orexin-2 receptor, 9 nM.

For the compound `CSc1cccc2nc([C@@H]3CCCN3C(=O)c3ccccc3-n3nccn3)[nH]c12` [Ex. 1.76], the values for the concentration for half-maximal inhibition (IC50) at human orexin-1 receptor and at human orexin-2 receptor were 279 nM and 17 nM, respectively.

Take `CSc1cccc2nc([C@@H]3CCCN3C(=O)c3cncnc3-c3ccc(C)cc3)[nH]c12` [Ex. 1.78]: the IC50 was determined as 102 nM on human orexin-1 receptor and 408 nM on human orexin-2 receptor.

In the case of `CSc1cccc2nc([C@@H]3CCCN3C(=O)c3cnc(C)nc3-c3ccc(Cl)c(Cl)c3)[nH]c12` [Ex. 1.79], the IC50 on human orexin-1 receptor amounted to 5 nM; on human orexin-2 receptor, 46 nM.

As to `CSc1cccc2nc([C@@H]3CCCN3C(=O)c3cnc(C)nc3-c3ccc(F)cc3)[nH]c12` [Ex. 1.80], the concentration for half-maximal inhibition (IC50) on human orexin-1 receptor was determined as 41 nM; at human orexin-2 receptor, 564 nM.

For the compound `CSc1cccc2nc([C@@H]3CCCN3C(=O)c3cnc(C)nc3-c3cccc(Cl)c3)[nH]c12` [Ex. 1.81], the IC50 on human orexin-1 receptor came out at 20 nM; at human orexin-2 receptor, 116 nM.

As to `CSc1cccc2nc([C@@H]3CCCN3C(=O)c3cncnc3-c3ccc(Cl)c(Cl)c3)[nH]c12` [Ex. 1.82], the IC50 came out at 13 nM at human orexin-1 receptor and 17 nM on human orexin-2 receptor.

Consider `CSc1cccc2nc([C@@H]3CCCN3C(=O)c3cncnc3-c3ccc(C)c(C)c3)[nH]c12` [Ex. 1.83], for which the values for the IC50 on human orexin-1 receptor and on human orexin-2 receptor were 17 nM and 36 nM, respectively.

With `CSc1cccc2nc([C@@H]3CCCN3C(=O)c3cncnc3-c3ccc(Br)c(Cl)c3)[nH]c12` [Ex. 1.84], the results for the IC50 at human orexin-1 receptor and at human orexin-2 receptor were 14 nM and 20 nM, respectively.

As for `CSc1cccc2nc([C@@H]3CCCN3C(=O)c3cnc(C)nc3-c3ccc(C)c(C)c3)[nH]c12` [Ex. 1.85], the results for the IC50 at human orexin-1 receptor and on human orexin-2 receptor were 5 nM and 23 nM, respectively.

Take `COc1cccc(-c2nc(C)ncc2C(=O)N2CCC[C@H]2c2nc3cccc(SC)c3[nH]2)c1` [Ex. 1.86]: the results for the IC50 at human orexin-1 receptor and at human orexin-2 receptor were 56 nM and 118 nM, respectively.

For the compound `CSc1cccc2nc([C@@H]3CCCN3C(=O)c3cnc(C)nc3-c3ccccc3)[nH]c12` [Ex. 1.87], the IC50 amounted to 30 nM on human orexin-1 receptor and 77 nM at human orexin-2 receptor.

As for `CSc1cccc2nc([C@@H]3CCCN3C(=O)c3cncnc3-c3cccc(C)c3)[nH]c12` [Ex. 1.88], the IC50 at human orexin-1 receptor was 102 nM; on human orexin-2 receptor, 109 nM.

With `CSc1cccc2nc([C@@H]3CCCN3C(=O)c3cncnc3-c3cc(Cl)cc(Cl)c3)[nH]c12` [Ex. 1.89], the IC50 came out at 39 nM at human orexin-1 receptor and 180 nM at human orexin-2 receptor.

For the compound `CSc1cccc2nc([C@@H]3CCCN3C(=O)c3cnc(C)nc3-c3ccc(Br)c(Cl)c3)[nH]c12` [Ex. 1.90], the IC50 at human orexin-1 receptor came out at 2 nM; at human orexin-2 receptor it was 14 nM.

For `CSc1cccc2nc([C@@H]3CCCN3C(=O)c3cnc(C)nc3-c3cc(Cl)cc(Cl)c3)[nH]c12` [Ex. 1.91], the results for the IC50 at human orexin-1 receptor and on human orexin-2 receptor were 13 nM and 25 nM, respectively.

`Cc1nc(C(=O)N2CCCC2c2nc3cc(Cl)c(Cl)cc3[nH]2)c(-c2cccc(Cl)c2)s1` (stereo not drawn) [Ex. 1.92]: the IC50 was 23 nM at human orexin-1 receptor and 69 nM at human orexin-2 receptor.

Consider `Cc1nc(C(=O)N2CCCC2c2nc3cc(Br)ccc3[nH]2)c(-c2cccc(Cl)c2)s1` (stereo not drawn) [Ex. 1.93], for which the IC50 came out at 102 nM at human orexin-1 receptor and 458 nM at human orexin-2 receptor.

In the case of `Cc1nc(C(=O)N2CCCC2c2nc3cc(C(F)(F)F)ccc3[nH]2)c(-c2cccc(Cl)c2)s1` (stereo not drawn) [Ex. 1.94], the values for the IC50 at human orexin-1 receptor and at human orexin-2 receptor were 42 nM and 414 nM, respectively.

In the case of `Cc1nc(C(=O)N2CCCC2c2nc3cc(C)c(C)cc3[nH]2)c(-c2cccc(Cl)c2)s1` (stereo not drawn) [Ex. 1.95], the IC50 on human orexin-1 receptor is 18 nM; on human orexin-2 receptor, 15 nM.

Turning to `Cc1nc(C(=O)N2CCCC2c2nc3c(C)cccc3[nH]2)c(-c2cccc(Cl)c2)s1` (stereo not drawn) [Ex. 1.96], the IC50 at human orexin-1 receptor is 54 nM; on human orexin-2 receptor, 43 nM.

Turning to `Cc1nc(C(=O)N2CCCC2c2nc3cc(Cl)ccc3[nH]2)c(-c2cccc(Cl)c2)s1` (stereo not drawn) [Ex. 1.97], the results for the IC50 on human orexin-1 receptor and at human orexin-2 receptor were 95 nM and 314 nM, respectively.

Take `Cc1nc(C(=O)N2CCCC2c2nc3cc(C(C)(C)C)ccc3[nH]2)c(-c2cccc(Cl)c2)s1` (stereo not drawn) [Ex. 1.99]: the results for the concentration for half-maximal inhibition (IC50) at human orexin-1 receptor and at human orexin-2 receptor were 58 nM and 50 nM, respectively.

`Cc1nc(C(=O)N2CCCC2c2nc3c(Cl)cc(C(F)(F)F)cc3[nH]2)c(-c2cccc(Cl)c2)s1` (stereo not drawn) [Ex. 1.100]: the IC50 on human orexin-1 receptor came out at 27 nM; on human orexin-2 receptor, 104 nM.

As for `Cc1nc(C(=O)N2CCCC2c2nc3cc(Cl)c(C)cc3[nH]2)c(-c2cccc(Cl)c2)s1` (stereo not drawn) [Ex. 1.101], the IC50 on human orexin-1 receptor was 21 nM; at human orexin-2 receptor, 50 nM.

`Cc1nc(C(=O)N2CCCC2c2nc3c(CO)cccc3[nH]2)c(-c2cccc(Cl)c2)s1` (stereo not drawn) [Ex. 1.103]: the IC50 on human orexin-1 receptor came to 364 nM; on human orexin-2 receptor it was 112 nM.

Turning to `Cc1nc(C(=O)N2CCCC2c2nc3c(F)cccc3[nH]2)c(-c2cccc(Cl)c2)s1` (stereo not drawn) [Ex. 1.104], the values for the IC50 on human orexin-1 receptor and on human orexin-2 receptor were 657 nM and 769 nM, respectively.

As to `Cc1nc(C(=O)N2CCCC2c2nc3c(C(F)(F)F)cccc3[nH]2)c(-c2cccc(Cl)c2)s1` (stereo not drawn) [Ex. 1.105], the values for the IC50 at human orexin-1 receptor and at human orexin-2 receptor were 45 nM and 89 nM, respectively.

For `Cc1nc(C(=O)N2CCCC2c2nc3c(Br)cccc3[nH]2)c(-c2cccc(Cl)c2)s1` (stereo not drawn) [Ex. 1.106], the IC50 on human orexin-1 receptor was determined as 17 nM; on human orexin-2 receptor it was 31 nM.

Turning to `Cc1nc(C(=O)N2CCCC2c2nc3cc(Br)cc(C)c3[nH]2)c(-c2cccc(Cl)c2)s1` (stereo not drawn) [Ex. 1.107], the IC50 at human orexin-1 receptor was found to be 28 nM; on human orexin-2 receptor, 58 nM.

Take `Cc1nc(C(=O)N2CCCC2c2nc3cc(OC(F)(F)F)ccc3[nH]2)c(-c2cccc(Cl)c2)s1` (stereo not drawn) [Ex. 1.108]: the results for the IC50 at human orexin-1 receptor and at human orexin-2 receptor were 171 nM and 835 nM, respectively.

Turning to `Cc1nc(C(=O)N2CCCC2c2nc3c(C)c(Cl)ccc3[nH]2)c(-c2cccc(Cl)c2)s1` (stereo not drawn) [Ex. 1.109], the results for the IC50 on human orexin-1 receptor and at human orexin-2 receptor were 5 nM and 10 nM, respectively.
